Laboratory results published in paper PMC3224213, “Bacterial membrane activity of α-peptide/β-peptoid chimeras: Influence of amino acid composition and chain length on the activity against different bacterial strains” (BMC Microbiology, 2011).

How the values were obtained:
[1] = tested on: twelve food-borne and clinical bacterial strains; assay type: cell-based
Description: Initial activity experiments were carried out with twelve strains from seven bacterial species representing common laboratory strains and clinical strains derived from both food-borne and nosocomial infections (Table 1). Stock cultures were stored at -80°C in 4% (w/v) glycerol, 0.5% (w/v) glucose, 2% (w/v) skimmed milk powder and 3% (w/v) tryptone soy powder. All experiments were carried out with bacteria incubated for one night (i.e. approximately 18 hours) at 37°C. Experiments were performed in cation-adjusted Mueller Hinton II broth (MHB) (Becton Dickinson 212322) adjusted to pH 7.4 or Tryptone Soy Broth (TSB) (Oxoid CM0129) for the ATP leakage assays. Brain Heart Infusion (BHI) (CM1135) with agar (VWR 20768.292) 1.5% as gelling agent was used throughout for colony plating.
The Minimum Inhibitory Concentration (MIC) of the chimeras was determined against the spectrum of bacteria using the microdilution method according to guidelines of the Clinical and Laboratory Standards Institute (CLSI). Chimera 1:2 serial dilutions were prepared from 1,024 μg/mL stock solutions to give a final range of 512-0.5 μg/mL in the wells. This corresponds to a final range of 144 to 0.14 μM for the heaviest chimera (i.e. chimera 4c) and of 282 to 0.27 μM for the lightest chimera (i.e. chimera 4a). Colonies grown overnight (i.e. approximately 18 hours) on BHI agar were suspended in 0.9% saline to give a turbidity of 0.13 at OD546 (approximately 1 × 10^8 CFU/mL), and then diluted in MHB pH 7.4 to a final concentration of 5 × 10^5 CFU/mL in each well. Following CLSI guidelines the media for testing of Listeria monocytogenes strains were supplemented with 2.5% lysed horse blood. Polypropylene plates (Nunc 442587) were used to minimize peptide binding and incubation time was 18-20 hours at 37°C. MIC was determined in a minimum of two technical replicates as the lowest concentration of the peptide analogue where no visible growth was found. The Minimum Bactericidal Concentration (MBC) was determined by plating 10 μL of the suspension from the first three wells without growth on BHI agar and incubating these for 24 hours at 37°C. MBC was the lowest concentration at which a 99.9% reduction in CFU/mL was observed. Activity is expressed in μmol/L to enable a direct comparison of analogues with different length (= size).

S. aureus [2] = assay: ATP leakage bioluminescence assay; assay type: cell-based, Staphylococcus aureus; conditions: for dose for the immediate maximum ATP release: 500 μg/mL expressed in μM; for intracellular ATP concentration: HEPES buffer pH 7.0, two independent experiments; for minimum chimera dose for the maximum immediate ATP release: doses 100, 250, 500, 1000 μg/mL, immediate release only, data not shown
Description: (§1) Pore formation as caused by peptide addition was determined by measuring ATP leakage from the bacterial cell using a bioluminescence assay. The assay was used to estimate differences between sub-typical chimeras 1, 2 and 3 on S. aureus and S. marcescens and to evaluate the effect of chain length of mixed type chimeras 4a, 4b and 4c on S. aureus. In brief, bacteria were grown in TSB at 37°C for 24 hours and then re-inoculated in TSB at 37°C for 6-8 hours until an absorbance at 546 nm of 2.5 for S. aureus and 2.0 for S. marcescens and then harvested (10 min at 2,000 × g). The bacteria were grown to a high absorbance since a high concentration of bacteria was necessary in order to get a measurable response in the ATP leakage assay. Cells were washed once in 50 mM potassium phosphate buffer (pH 7.0) and once in 50 mM HEPES buffer (pH 7.0), before the pellet was resuspended in HEPES buffer to an OD546 ~ 10, and then stored on ice. Before chimera addition bacteria were pre-incubated with 0.2% (w/v) glucose to energize the cells. In general a chimera dose of 1000 μg/mL (corresponding to 280-552 μM for all chimeras) was used for all assays; however, for determining dose response curves additional doses of 100 (28-55 μM), 250 (71-137 μM) and 500 (140-276 μM) μg/mL were tested, and only the immediate release was noted. Total ATP and extracellular ATP were determined with a luminometer […]. Intracellular volumes of S. aureus and S. marcescens (0.85 μm^3 and 1.7 μm^3, respectively) were subtracted from the total volume before calculating the extracellular ATP concentration; the intracellular ATP concentration could then be calculated from this and the total ATP. ATP leakage kinetics was determined on a bacterial suspension prepared as above. Samples were taken at time 0, 5, 10, 20, 30 and 60 minutes and viable counts determined. Both the ATP leakage assay and killing kinetics performed under the same assay conditions were performed in two independent experiments.

S. aureus [3] = assay: Time-kill under the conditions of the ATP leakage assay; assay type: cell-based, Staphylococcus aureus; conditions: 1000 μg/mL chimera, same conditions as ATP assay, within the first 20 minutes, initial log ~9.5 per mL
Description: as §1

[4] = range over strains, summary of Table 2

CC(=O)N[C@@H](CCCCN)C(=O)N(CCC(=O)N[C@@H](CCCCNC(=N)N)C(=O)N(CCC(=O)N[C@@H](CCCCN)C(=O)N(CCC(=O)N[C@@H](CCCCNC(=N)N)C(=O)N(CCC(=O)N[C@@H](CCCCN)C(=O)N(CCC(=O)N[C@@H](CCCCNC(=N)N)C(=O)N(CCC(=O)N[C@@H](CCCCN)C(=O)N(CCC(=O)N[C@@H](CCCCNC(=N)N)C(=O)N(CCC(N)=O)[C@@H](C)c1ccccc1)[C@@H](C)c1ccccc1)[C@@H](C)c1ccccc1)[C@@H](C)c1ccccc1)[C@@H](C)c1ccccc1)[C@@H](C)c1ccccc1)[C@@H](C)c1ccccc1)[C@@H](C)c1ccccc1 [Chimera 4c] was tested, and the “MIC values against the clinical strains of E. coli, S. aureus and K. pneumoniae” value [1, 4] was 2.2 to 9.0 µM, the “MIC values against the food-borne pathogens L. monocytogenes and Vibro spp.” value [1, 4] was 1.1 to 2.2 µM and the “dose for the immediate maximum ATP release” value (S. aureus [2]) was 140 µM. For the same compound, the “immediate ATP release” value (S. aureus [2]; 1000 μg/mL chimera) was “approximately 15 μM”, the “intracellular ATP concentration” value (S. aureus [2]; 1000 μg/mL chimera) was “immediately depleted of intracellular ATP” and the “minimum chimera dose for the maximum immediate ATP release” value (S. aureus [2]) was 500 µg/mL. The “reduction in number of viable cells” value (S. aureus [3]) was 2 log.
For CC(=O)N[C@@H](CCCCN)C(=O)N(CCC(=O)N[C@@H](CCCCNC(=N)N)C(=O)N(CCC(=O)N[C@@H](CCCCN)C(=O)N(CCC(=O)N[C@@H](CCCCNC(=N)N)C(=O)N(CCC(N)=O)[C@@H](C)c1ccccc1)[C@@H](C)c1ccccc1)[C@@H](C)c1ccccc1)[C@@H](C)c1ccccc1 [Chimera 4a], the “MIC values times higher than those of chimera 4c” value ([1]; ratio of MIC to that of chimera 4c, over the strains of Table 2) was 15-70 times, the “dose for the immediate maximum ATP release” value (S. aureus [2]) was 276 µM and the “immediate ATP release” value (S. aureus [2]; 1000 μg/mL chimera) was “approximately 15 μM”. For the same compound, the “intracellular ATP concentration” value (S. aureus [2]; 1000 μg/mL chimera) was “approx. 5 μM”, the “minimum chimera dose for the maximum immediate ATP release” value (S. aureus [2]) was 500 µg/mL and the “reduction in number of viable cells” value (S. aureus [3]) was “no killing was observed”.
For CC(=O)N[C@@H](CCCCN)C(=O)N(CCC(=O)N[C@@H](CCCCNC(=N)N)C(=O)N(CCC(=O)N[C@@H](CCCCN)C(=O)N(CCC(=O)N[C@@H](CCCCNC(=N)N)C(=O)N(CCC(=O)N[C@@H](CCCCN)C(=O)N(CCC(=O)N[C@@H](CCCCNC(=N)N)C(=O)N(CCC(N)=O)[C@@H](C)c1ccccc1)[C@@H](C)c1ccccc1)[C@@H](C)c1ccccc1)[C@@H](C)c1ccccc1)[C@@H](C)c1ccccc1)[C@@H](C)c1ccccc1 [Chimera 4b], the “ATP leakage (in words)” value (S. aureus [2]; 1000 μg/mL chimera) was “same leakage pattern as induced by chimera 4a” and the “reduction in number of viable cells” value (S. aureus [3]) was “no killing was observed”.
